ChEMBL document CHEMBL5291721, “A preclinical secondary pharmacology resource illuminates target-adverse drug reaction associations of marketed drugs” (Nat Commun, 2023)

Assays:
Mu-type opioid receptor = Mu-type opioid receptor (Homo sapiens, UniProt P35372)
Melanocortin receptor 4 = Melanocortin receptor 4 (Homo sapiens, UniProt P32245)
[1] = biological target: 5-hydroxytryptamine receptor 2B (Homo sapiens, UniProt P41595); assay type: functional, cell-based
[2] = biological target: T1, Amine oxidase [flavin-containing] A (Homo sapiens, UniProt P21397); assay type: functional
T1 sequence (P21397 whole entry): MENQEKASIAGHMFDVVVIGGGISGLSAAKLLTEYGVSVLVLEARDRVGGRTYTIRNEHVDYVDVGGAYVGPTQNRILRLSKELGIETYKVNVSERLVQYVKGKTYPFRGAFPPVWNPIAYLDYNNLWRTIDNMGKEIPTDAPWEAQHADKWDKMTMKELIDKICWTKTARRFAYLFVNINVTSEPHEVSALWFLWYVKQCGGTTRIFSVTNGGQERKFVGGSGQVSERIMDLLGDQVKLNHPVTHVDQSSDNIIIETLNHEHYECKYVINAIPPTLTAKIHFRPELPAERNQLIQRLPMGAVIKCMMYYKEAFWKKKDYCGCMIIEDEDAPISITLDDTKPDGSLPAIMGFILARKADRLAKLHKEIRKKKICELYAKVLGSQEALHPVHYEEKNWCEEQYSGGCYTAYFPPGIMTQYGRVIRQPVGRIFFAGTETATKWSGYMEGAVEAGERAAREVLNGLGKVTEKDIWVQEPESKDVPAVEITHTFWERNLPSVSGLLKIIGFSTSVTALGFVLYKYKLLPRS

Cannabinoid receptor 1 = Cannabinoid receptor 1 (Homo sapiens, UniProt P21554)
[3] = biological target: T2, Neuropeptide Y receptor type 1 (Homo sapiens, UniProt P25929)
T2 sequence (P25929 whole entry): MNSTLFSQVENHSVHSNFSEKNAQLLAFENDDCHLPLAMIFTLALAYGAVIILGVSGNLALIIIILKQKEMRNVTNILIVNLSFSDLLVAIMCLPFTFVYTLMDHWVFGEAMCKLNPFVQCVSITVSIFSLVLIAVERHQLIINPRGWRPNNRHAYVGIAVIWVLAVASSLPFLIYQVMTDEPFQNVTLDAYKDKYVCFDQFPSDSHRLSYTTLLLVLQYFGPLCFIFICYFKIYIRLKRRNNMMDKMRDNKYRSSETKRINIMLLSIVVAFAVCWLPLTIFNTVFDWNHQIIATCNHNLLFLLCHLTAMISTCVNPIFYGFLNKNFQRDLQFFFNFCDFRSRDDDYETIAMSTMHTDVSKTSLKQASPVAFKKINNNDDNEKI

[4] = biological target: T3, Prostaglandin G/H synthase 1 (Rattus norvegicus, UniProt Q63921); assay type: functional
T3 sequence (Q63921 whole entry): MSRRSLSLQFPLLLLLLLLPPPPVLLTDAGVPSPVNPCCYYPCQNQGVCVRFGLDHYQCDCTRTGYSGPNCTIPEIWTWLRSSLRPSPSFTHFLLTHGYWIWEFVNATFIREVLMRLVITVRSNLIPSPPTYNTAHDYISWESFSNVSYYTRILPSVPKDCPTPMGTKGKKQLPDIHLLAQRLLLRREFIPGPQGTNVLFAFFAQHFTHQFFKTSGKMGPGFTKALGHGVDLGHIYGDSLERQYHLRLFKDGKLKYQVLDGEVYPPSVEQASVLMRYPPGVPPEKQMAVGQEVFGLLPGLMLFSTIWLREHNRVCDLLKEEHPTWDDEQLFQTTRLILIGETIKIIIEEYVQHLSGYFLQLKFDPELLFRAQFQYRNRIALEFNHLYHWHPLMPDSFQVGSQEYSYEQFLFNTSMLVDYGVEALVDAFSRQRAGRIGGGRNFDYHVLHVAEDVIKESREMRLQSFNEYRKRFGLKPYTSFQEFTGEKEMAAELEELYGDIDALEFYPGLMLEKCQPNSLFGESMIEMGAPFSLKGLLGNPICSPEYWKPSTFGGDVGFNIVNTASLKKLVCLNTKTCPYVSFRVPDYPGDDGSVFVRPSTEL

[5] = biological target: Growth hormone secretagogue receptor type 1 (Homo sapiens, UniProt Q92847)
[6] = biological target: T4, Alpha-1A adrenergic receptor (Homo sapiens, UniProt P35348)
T4 sequence (P35348 whole entry): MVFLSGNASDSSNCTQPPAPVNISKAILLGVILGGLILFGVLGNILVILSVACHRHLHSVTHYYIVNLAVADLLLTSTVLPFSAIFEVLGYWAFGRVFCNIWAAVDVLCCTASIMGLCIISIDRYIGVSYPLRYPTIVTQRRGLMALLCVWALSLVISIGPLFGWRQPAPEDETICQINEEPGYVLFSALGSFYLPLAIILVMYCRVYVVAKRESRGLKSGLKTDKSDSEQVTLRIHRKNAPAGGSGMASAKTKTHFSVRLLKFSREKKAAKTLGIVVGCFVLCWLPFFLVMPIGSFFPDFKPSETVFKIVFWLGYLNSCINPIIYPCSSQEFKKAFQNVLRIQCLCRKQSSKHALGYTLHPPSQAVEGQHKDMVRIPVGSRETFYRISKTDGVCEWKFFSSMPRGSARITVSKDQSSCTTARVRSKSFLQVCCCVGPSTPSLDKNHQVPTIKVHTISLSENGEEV

[7] = biological target: T4, Alpha-1A adrenergic receptor; assay type: functional, cell-based
[8] = biological target: T5, Gastrin/cholecystokinin type B receptor (Homo sapiens, UniProt P32239)
T5 sequence (P32239 whole entry): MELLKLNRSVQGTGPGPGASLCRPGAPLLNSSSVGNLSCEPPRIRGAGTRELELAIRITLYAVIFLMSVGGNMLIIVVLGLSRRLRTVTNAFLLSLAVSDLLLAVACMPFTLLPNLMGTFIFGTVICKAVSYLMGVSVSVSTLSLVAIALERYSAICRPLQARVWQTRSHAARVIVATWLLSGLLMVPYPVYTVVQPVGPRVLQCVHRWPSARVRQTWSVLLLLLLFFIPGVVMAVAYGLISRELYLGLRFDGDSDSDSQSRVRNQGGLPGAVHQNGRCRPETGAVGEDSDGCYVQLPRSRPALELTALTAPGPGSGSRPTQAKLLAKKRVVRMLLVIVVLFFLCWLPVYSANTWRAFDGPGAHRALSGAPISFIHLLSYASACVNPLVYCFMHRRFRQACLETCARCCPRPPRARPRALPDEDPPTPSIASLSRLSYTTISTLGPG

[9] = biological target: T4, Alpha-1A adrenergic receptor; assay type: functional, cell-based; remark: listed apart in the source
Also: assay procedure not described here.

Sequence of Cannabinoid receptor 1 (P21554 whole entry): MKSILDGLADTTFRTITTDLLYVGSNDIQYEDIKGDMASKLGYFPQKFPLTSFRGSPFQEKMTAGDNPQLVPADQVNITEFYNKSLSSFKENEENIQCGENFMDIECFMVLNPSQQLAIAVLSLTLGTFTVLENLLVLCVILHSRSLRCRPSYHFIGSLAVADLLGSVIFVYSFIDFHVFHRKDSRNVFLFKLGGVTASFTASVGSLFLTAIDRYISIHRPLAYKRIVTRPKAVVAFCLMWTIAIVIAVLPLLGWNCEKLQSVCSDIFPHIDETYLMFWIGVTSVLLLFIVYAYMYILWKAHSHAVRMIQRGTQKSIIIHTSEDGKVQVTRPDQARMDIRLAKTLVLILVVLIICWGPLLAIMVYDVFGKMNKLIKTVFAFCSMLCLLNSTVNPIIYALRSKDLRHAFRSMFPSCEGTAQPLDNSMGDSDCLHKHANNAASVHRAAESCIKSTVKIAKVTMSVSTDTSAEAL
Sequence of Mu-type opioid receptor (P35372 whole entry): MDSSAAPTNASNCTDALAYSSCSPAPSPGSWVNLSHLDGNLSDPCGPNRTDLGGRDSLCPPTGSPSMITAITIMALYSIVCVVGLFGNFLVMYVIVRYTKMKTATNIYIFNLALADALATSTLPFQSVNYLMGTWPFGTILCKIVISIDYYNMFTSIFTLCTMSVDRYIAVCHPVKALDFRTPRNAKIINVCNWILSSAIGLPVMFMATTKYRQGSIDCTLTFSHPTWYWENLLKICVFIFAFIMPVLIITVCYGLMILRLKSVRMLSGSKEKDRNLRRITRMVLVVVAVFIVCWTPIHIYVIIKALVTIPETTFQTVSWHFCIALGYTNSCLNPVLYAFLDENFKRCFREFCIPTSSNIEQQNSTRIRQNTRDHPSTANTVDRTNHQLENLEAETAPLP
Sequence of Melanocortin receptor 4 (P32245 whole entry): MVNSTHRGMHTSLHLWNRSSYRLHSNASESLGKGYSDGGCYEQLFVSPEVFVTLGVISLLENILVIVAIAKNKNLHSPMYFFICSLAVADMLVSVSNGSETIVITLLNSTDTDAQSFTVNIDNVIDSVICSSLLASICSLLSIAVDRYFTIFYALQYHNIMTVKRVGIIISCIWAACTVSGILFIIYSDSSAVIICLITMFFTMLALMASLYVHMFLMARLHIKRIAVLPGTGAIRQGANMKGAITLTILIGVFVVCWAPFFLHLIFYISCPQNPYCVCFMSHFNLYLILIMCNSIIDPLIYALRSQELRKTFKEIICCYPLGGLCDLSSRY
Sequence of 5-hydroxytryptamine receptor 2B (P41595 whole entry): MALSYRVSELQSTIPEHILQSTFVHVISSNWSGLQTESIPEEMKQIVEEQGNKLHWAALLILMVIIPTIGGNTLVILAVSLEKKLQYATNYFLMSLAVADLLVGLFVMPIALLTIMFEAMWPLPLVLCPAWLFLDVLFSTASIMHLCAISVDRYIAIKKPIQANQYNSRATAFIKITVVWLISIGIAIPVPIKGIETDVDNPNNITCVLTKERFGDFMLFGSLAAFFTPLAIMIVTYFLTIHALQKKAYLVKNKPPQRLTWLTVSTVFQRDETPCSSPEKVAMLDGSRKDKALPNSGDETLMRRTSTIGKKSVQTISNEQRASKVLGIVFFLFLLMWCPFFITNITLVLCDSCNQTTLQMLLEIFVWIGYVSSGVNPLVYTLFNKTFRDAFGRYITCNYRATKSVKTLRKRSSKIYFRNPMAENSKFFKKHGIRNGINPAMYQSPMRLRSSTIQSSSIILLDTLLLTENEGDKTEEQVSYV
Sequence of Growth hormone secretagogue receptor type 1 (Q92847 whole entry): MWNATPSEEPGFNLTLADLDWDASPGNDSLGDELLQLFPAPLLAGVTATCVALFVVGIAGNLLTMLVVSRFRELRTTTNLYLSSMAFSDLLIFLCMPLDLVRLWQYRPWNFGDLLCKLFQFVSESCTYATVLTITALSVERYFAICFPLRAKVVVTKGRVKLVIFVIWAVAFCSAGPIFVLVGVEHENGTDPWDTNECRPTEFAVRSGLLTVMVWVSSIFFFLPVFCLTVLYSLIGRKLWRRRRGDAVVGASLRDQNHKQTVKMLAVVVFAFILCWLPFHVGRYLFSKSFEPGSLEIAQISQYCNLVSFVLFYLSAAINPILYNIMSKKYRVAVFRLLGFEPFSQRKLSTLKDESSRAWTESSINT

Row | SMILES | AC50 (Mu-type opioid receptor) [µM] | AC50 (Melanocortin receptor 4) [µM] | AC50 [1] [µM] | AC50 [2] [µM] | AC50 (Cannabinoid receptor 1) [µM] | AC50 [3] [µM] | AC50 [4] [µM] | AC50 [5] [µM] | AC50 [6] [µM] | AC50 [7] [µM] | AC50 [8] [µM] | AC50 [9] [µM]
1 | C=CCC1(C(C)CC)C(=O)NC(=O)NC1=O (centres undefined) [TALBUTAL] | > 30 | > 10 | > 10 | > 10 | > 10 | > 10 | > 10 | > 10 | > 10 |  |  | 
2 | CC(C)Cn1cnc2c(N)nc3ccccc3c21 [IMIQUIMOD] | > 30 | > 10 | 19 | > 10 | > 10 | > 10 | > 30 | > 10 | 5.67 |  |  | 
3 | O=C(O)CCCCCCCC(=O)O [AZELAIC ACID] | > 30 | > 10 | > 10 | > 10 | > 10 | > 10 | > 10 | > 10 | > 30 |  |  | 
4 | CN1C(=O)OC(C)(C)C1=O [TRIMETHADIONE] | > 30 | > 10 | > 10 | > 10 | > 10 | > 10 | > 10 | > 10 | > 10 |  |  | 
5 | C[C@]12CC[C@H]3[C@@H](CCC4=CC(=O)CC[C@@]43C)[C@@H]1CC[C@@H]2O [TESTOSTERONE] | > 30 | > 10 | > 10 | > 10 | > 10 | > 10 | > 10 | > 10 | > 30 |  |  | 
6 | CN1CCC(=C2c3ccccc3CCc3sccc32)CC1 [PIZOTYLINE] | > 10 | > 30 | > 30 | > 10 | 1.66 | > 30 | > 30 | > 30 |  | > 30 | > 30 | 3.32
7 | O=C(O)[C@H](CC(=O)N1C[C@H]2CCCC[C@H]2C1)Cc1ccccc1 [MITIGLINIDE] | > 30 | > 10 | > 10 | > 10 | > 10 | > 10 | > 10 | > 10 | > 10 |  |  | 
8 | CO[C@@H]1[C@@H](O[C@@H]2O[C@H](C)[C@@H](O[C@H]3C[C@@](C)(O)[C@@H](OC(=O)CC(C)C)[C@H](C)O3)[C@H](N(C)C)[C@H]2O)[C@@H](CC=O)C[C@@H](C)[C@@H](O)/C=C/C=C/C[C@@H](C)OC(=O)C[C@H]1OC(C)=O [JOSAMYCIN] | > 30 | > 10 | > 10 | > 10 | > 10 | > 10 | > 10 | > 10 |  |  |  | 
9 | C[C@]1(O)CC[C@H]2[C@@H]3CCC4=CC(=O)CC[C@]4(C)[C@@]3(F)[C@@H](O)C[C@@]21C [FLUOXYMESTERONE] | > 30 | > 10 | > 10 | > 30 | > 10 | > 10 | > 10 | > 10 | > 30 |  |  | 
10 | C#C[C@]1(O)CC[C@H]2[C@@H]3CCc4cc(OC5CCCC5)ccc4[C@H]3CC[C@@]21C [QUINESTROL] | > 30 | > 10 | > 10 | > 10 | > 10 | > 10 | > 10 | > 10 | > 10 |  |  | 
11 | O=C(O)C1=C(CSc2nnnn2CS(=O)(=O)O)CS[C@@H]2[C@H](NC(=O)[C@H](O)c3ccccc3)C(=O)N12 [CEFONICID] |  | > 30 | > 30 | > 30 | > 30 | > 30 | > 30 | > 30 | > 30 | > 30 | > 30 | > 30
12 | O=C(NCCN1CCOCC1)c1ccc(Cl)cc1 [MOCLOBEMIDE] | > 30 | > 10 | > 10 |  | > 10 | > 10 | > 10 | > 10 | > 10 |  |  | 
13 | COC(=O)[C@H]1[C@H]2C[C@@H]3c4[nH]c5cc(OC)ccc5c4CCN3C[C@H]2C[C@@H](OC(=O)/C=C/c2cc(OC)c(OC)c(OC)c2)[C@@H]1OC [RESCINNAMINE] | > 10 | > 10 | > 10 | > 10 | > 10 | > 10 | 11.6 | > 10 |  |  |  | 
14 | CC(C[N+](C)(C)C)OC(N)=O (centres undefined) [BETHANECHOL] | > 30 | > 10 | > 10 | > 10 | > 10 | > 10 | > 10 | > 10 | > 10 |  |  | 
15 | Cc1ccc(S(=O)(=O)NC(=O)NN2CC3CCCC3C2)cc1 (centres undefined) [GLICLAZIDE] | > 30 | > 10 | > 10 | > 30 | > 10 | > 10 | > 10 | > 10 | > 30 |  |  | 
16 | NCC[C@H](O)C(=O)N[C@@H]1C[C@H](N)[C@@H](O[C@H]2O[C@H](CN)[C@@H](O)[C@H](O)[C@H]2O)[C@H](O)[C@H]1O[C@H]1O[C@H](CO)[C@@H](O)[C@H](N)[C@H]1O [AMIKACIN] | > 30 | > 10 | > 10 | > 10 | > 10 | > 10 | > 10 | > 10 | > 10 |  |  | 
17 | CCCC(=O)O[C@]1(C(=O)CO)CC[C@H]2[C@@H]3CCC4=CC(=O)CC[C@]4(C)[C@H]3[C@@H](O)C[C@@]21C [HYDROCORTISONE BUTYRATE] | > 30 | > 10 | > 10 | > 10 | > 10 | > 10 | > 10 | > 10 | > 10 |  |  | 
